Here are results for one compound from US20150105281A1, “Method for the Selection of Serum Biomarkers of Epigenetic Alterations, Particularly of Global Hypomethylation and Their Uses” (Universite Paris Descartes, priority 2012, published 2015).

Each structure is given as a SMILES string. pIC50: −log10 of the molar value.

Holding throughout (assay type): cell-based, human
One assay deals with A549. The assay is described as follows: Cell viability (WST-1) with 5-aza-dC at increasing doses. The text has this: (§1) To further determine the impact of global demethylation on the expression of hCGβ type II and pro-EPIL, we used 5-aza-2′ deoxycytidine (5-aza-dC), a strong inducer of DNA de-methylation and measured the levels of hCGβ type II and pro-EPIL in the supernatants of 10 cancer cell lines of various histological origin, treated at two different doses of 5-aza-dC. On the curve of viability of each cell line treated with 5-aza-dC at increasing doses, the two selected doses that have been selected for studying the effect of global hypomethylation by 5-aza-dC on the production of hCGβ type II and pro-EPIL were the doses corresponding to the 5-aza-dC concentrations at the inflexion point and at the 50% inhibition of cell viability (Inhibition growth Concentration 50% or IC 50), respectively (FIG. 3 and Table 2).
(§2) Briefly, 10,000 cells were plated in 96-well plates in 100 μl medium. After one day, dilution range of 5-aza-dC from 1,000 μM to 0.06 μM were added. After 96 h incubation time, 10 μl of WST-1 were added and optical density (O.D) were measured at 450 nm (FIG. 3 and Table 2).
A general note: Tetrazolium assays rely on reduction of a dye to a coloured formazan, in cell work by metabolically active cells.

The next assay relates to BC173. The assay is described as above. The note with it: 96 h.
Source text: as §1, §2

The test system of another assay is CLRB018P. Described as above. The note with it: 96 h.
Source text: as §1, §2

A further assay has as its system HT1376. Described as above.
Source text: as §1, §2

For the next assay, the system named is JAR. The description is as above. The settings on record: 96 h.
Source text: as §1, §2

The next assay deals with JEG. The assay is described as above. The note with it: 96 h.
Source text: as §1, §2

For a further assay, the system named is LCF09. Described as above. The settings on record: 96 h.
Source text: as §1, §2

The next assay relates to OBR. Described as above. The note with it: 96 h.
Source text: as §1, §2

Another assay deals with SHP77. The description is as above.
Source text: as §1, §2

A further assay has as its system TC320X6. The assay is described as above. The note with it: 96 h.
Source text: as §1, §2

For the next assay, the system named is pro-EPIL. The assay is described as follows: Pro-EPIL in supernatants of cancer cell lines after induction of DNA demethylation (ELISA). The settings on record: 10 cancer cell lines, 72 h at dose A or dose B, supernatant, vs cells not exposed (FIG. 4A).
Source text: as §1
(§3) Experiments were performed as previously described. Briefly, in 75 cm^2 size cell culture flaks, cell lines were grew up to more than 50% confluence before treating them for 72 h with 5-aza-dC at either the doses A corresponding at the Inflection Points, or the doses B corresponding to IC50. […] After trypsinisation, cells were counted in malassez chamber using trypan blue. […] Then, the pro-EPIL and hCG B type II concentrations were determined by an ELISA immunoassay and an automated KRYPTOR immunoassay, respectively (Table 2, FIG. 4A, FIG. 4B).
A general note: ELISA stands for enzyme-linked immunosorbent assay.

The subject of the next assay is hCGβ type II. The assay is described as follows: hCGβ type II in supernatants of cancer cell lines after induction of DNA demethylation (KRYPTOR immunoassay). The settings on record: 10 cancer cell lines, 72 h at dose A or dose B, supernatant, vs cells not exposed (FIG. 4B).
Source text: as §1, §3

Setting [1] is: Homo sapiens, read-out: Dose B (5-aza-dC concentration at the 50% inhibition of cell viability, IC 50).

As to `Nc1ncn([C@H]2C[C@H](O)[C@@H](CO)O2)c(=O)n1` [5-aza-dC, 5-aza-2′ deoxycytidine], the “Dose A (5-aza-dC concentration at the inflexion point of the viability curve)” value with A549 (A549, lung, 96 h, WST-1) was 12.5 µM; with BC173 (BC173, breast, WST-1) it was 1.95 µM; in the assay on CLRB018P (CLRB018P, colon, WST-1), 15.6 µM; in the assay with HT1376 (HT1376, bladder, 96 h, WST-1), 1.6 µM; in the assay on JAR (JAR, placenta, WST-1) it was 2 µM; in the assay with JEG (JEG, placenta, WST-1), 2.6 µM. Moreover, the “Dose A (5-aza-dC concentration at the inflexion point of the viability curve)” value with LCF09 (LCF09, lung, WST-1) was 5 µM; in the assay on OBR (OBR, bladder, WST-1), 6.5 µM; in the assay with SHP77 (SHP77, lung, 96 h, WST-1), 8 µM; in the assay with TC320X6 (TC320X6, colon, WST-1) it was 4 µM. Besides, the pIC50 is 4.30 with A549 (Homo sapiens, A549, 96 h, read-out: Dose B (5-aza-dC concentration at the 50% inhibition of cell viability, IC 50)); 3.93 in the assay with BC173 (setting [1]); 3.73 in the assay on CLRB018P (setting [1]); 5.20 in the assay with HT1376 (Homo sapiens, HT-1376, 96 h, read-out: Dose B (5-aza-dC concentration at the 50% inhibition of cell viability, IC 50)); 4.75 in the assay on JAR (setting [1]); 5.30 with JEG (setting [1]). Moreover, the pIC50 is 4.60 in the assay on LCF09 (setting [1]); 4.70 in the assay on OBR (setting [1]); 4.56 in the assay with SHP77 (Homo sapiens, SHP77, 96 h, read-out: Dose B (5-aza-dC concentration at the 50% inhibition of cell viability, IC 50)); 4.11 with TC320X6 (setting [1]). Moreover, the “Effect on the production of pro-EPIL” value in the assay on pro-EPIL is recorded as “induced consistently an increase”. Further, the “Cell lines with an increase in the production of hCGβ type II” value with hCGβ type II is given as 7 out of 10.
